Data published in patent publication US20090137664A1, “SAURURUS CERNUUS COMPOUNDS THAT INHIBIT CELLULAR RESPONSES TO HYPOXIA” (priority 2003, published 2009).

Tests used:
HIF-1 = assay: pTK-HRE3-luc reporter assay, 1,10-phenanthroline-induced HIF-1 activation in T47D cells; assay type: cell-based; settings: Homo sapiens, read-out: inhibition of HIF-1 activation by 1,10-phenanthroline, 100 nM
Source text: Iron chelators and transition metals (such as cobalt and nickel) can activate HIF-1 and have been used as chemical hypoxia mimetics. […] The expression of the HIF-1α subunit quantitatively determines HIF-1 biological activity (activation of transcription).

SK-MEL-5 = assay: NCI in vitro cell line screen (SRB), Melanoma SK-MEL-5; assay type: cell-based
Procedure: (§1) For exemplary purposes, an embodiment of the present invention was tested for activity with respect to certain cancer cell lines. The following Tables show results from in vitro 60-cell line antitumor testing from the US National Cancer Institute Developmental Therapeutics Program (NCI-DTP) on compound 2. The testing was in connection with the NCI's In Vitro Cell Line Screening Project (IVCLSP). Detailed information regarding the experiments and their interpretation is available from the NCI.

IGROV1 = assay: NCI in vitro cell line screen (SRB), Ovarian Cancer IGROV1; assay type: cell-based
Procedure: as §1

PC-3 = assay: NCI in vitro cell line screen (SRB), Prostate Cancer PC-3; assay type: cell-based
Procedure: as §1

NCI-H226 = assay: NCI in vitro cell line screen (SRB), Non-Small Cell Lung Cancer NCI-H226; assay type: cell-based
Procedure: as §1

RPMI-8226 = assay: NCI in vitro cell line screen (SRB), Leukemia RPMI-8226; assay type: cell-based
Procedure: as §1

[1] = target: T1, recombinant VEGF protein standard (Homo sapiens, UniProt P15692); assay: interference with the VEGF ELISA using VEGF standard
T1 construct: purchased R & D Systems
T1 sequence (P15692 27-191 isoform P15692-4): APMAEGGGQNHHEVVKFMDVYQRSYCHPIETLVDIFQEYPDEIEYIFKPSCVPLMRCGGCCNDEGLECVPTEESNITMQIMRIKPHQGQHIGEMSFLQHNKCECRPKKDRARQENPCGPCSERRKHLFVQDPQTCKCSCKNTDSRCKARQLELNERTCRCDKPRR
Procedure: (§2) The effects of compounds 1 and 2 on hypoxic induction of secreted VEGF protein are examined in T47D cells. Exponentially grown T47D cells are plated at the density of 30,000 cells/well into 96-well plates. Compound treatment and hypoxic exposure are the same as described. Following incubation, the concentration of secreted VEGF protein in the conditioned media is determined by ELISA (R & D Systems) and the data normalized by the number of viable cells. Results shown in FIG. 4 are averages from a representative experiment performed in quadruplicate, the bars represent standard error. An asterisk (*) indicates the level of significance (p<0.01) relative to the hypoxic control, two asterisks (**) (p<0.0001), and no asterisk indicates no statistical difference (ANOVA and Fisher's PLSD post hoc test).
As discussed earlier, one important HIF-1 target gene is VEGF, a key factor for tumor angiogenesis. Compounds that can inhibit both HIF-1 activation and the production of secreted VEGF protein represent potential efficacious chemotherapeutic agents that inhibit both tumor survival and hypoxia induced angiogenesis. […] Following incubation, the concentration of secreted VEGF protein in the conditioned media is determined by ELISA (R & D Systems) and the data normalized by the number of viable cells. […] The level of significance (p<0.01) is determined by ANOVA and Fisher's PLSD post hoc test. […]

secreted VEGF protein = assay: hypoxic induction of secreted VEGF protein in T47D cells (ELISA); assay type: cell-based, human
Procedure: as §2
As discussed earlier, one important HIF-1 target gene is VEGF, a key factor for tumor angiogenesis. Compounds that can inhibit both HIF-1 activation and the production of secreted VEGF protein represent potential efficacious chemotherapeutic agents that inhibit both tumor survival and hypoxia induced angiogenesis. The effects of four active examples (compounds 2, 3, 4, and 5) on hypoxic induction of secreted VEGF protein are examined in T47D cells and the data are presented in FIG. 9. Exponentially grown T47D cells are plated at the density of 356,000 cells/well into 12-well plates. Compound treatment and hypoxic exposure are the same as described. Following incubation, the concentration of secreted VEGF protein in the conditioned media is determined by ELISA (R & D Systems) and the data normalized by the number of viable cells. […] Hypoxic exposure leads to a 2-fold increase in the level of secreted VEGF protein. […] The level of significance (p<0.01) is determined by ANOVA and Fisher's PLSD post hoc test. The exemplary compounds 2, 3, and 4 all completely block hypoxic induction of secreted VEGF protein at concentrations as low as 10 nM. The exemplary compound 5 inhibits the hypoxic induction by 60% at 10 nM, and completely blocks at 100 nM. When tested at 100 nM, none of the compounds interfere with the ELISA assay using VEGF standard (no greater than 15% difference).

pGL3 Control = assay: luciferase expression from control plasmid pGL3 Control; assay type: cell-based, human
Procedure: The chemical structures of active compounds 1 and 2 are shown above. Compound 2 is the known compound manassantin B and 1 is a novel compound of the present invention. […] Similar results are obtained from separate experiments. The IC50 is 3 nM for 2 and 30 nM for 1. Complete inhibition is observed at 10 nM for 2 and 100 nM for 1.

[2] = Homo sapiens, read-out: LC50 (the source's name)

## COc1ccc([C@@H](O)[C@@H](C)Oc2ccc([C@H]3O[C@H](c4ccc(O[C@H](C)[C@H](O)c5ccc6c(c5)OCO6)c(OC)c4)[C@H](C)[C@H]3C)cc2OC)cc1OC [Compound 2, manassantin B]
HIF-1
  inhibition at 0.1 µM: 44%
SK-MEL-5
  TGI: 1.85E−6 Molar
SK-MEL-5; Homo sapiens
  GI50: < 0.01 µM
SK-MEL-5; [2]
  CC50: 9.04 µM
SK-MEL-5; Log10 Concentration −4.0 Molar
  Mean Optical Densities: 0.097
  Percent Growth: −79%
SK-MEL-5; Log10 Concentration −5.0 Molar
  Mean Optical Densities: 0.222
  Percent Growth: −53%
SK-MEL-5; Log10 Concentration −6.0 Molar
  Mean Optical Densities: 0.771
  Percent Growth: 19%
SK-MEL-5; Log10 Concentration −7.0 Molar
  Mean Optical Densities: 1.053
  Percent Growth: 38%
SK-MEL-5; Log10 Concentration −8.0 Molar
  Mean Optical Densities: 0.980
  Percent Growth: 33%
IGROV1
  TGI: >1.00E−4 Molar
IGROV1; Homo sapiens, IGROV-1
  GI50: 14 µM
IGROV1; Homo sapiens, IGROV-1, read-out: LC50 (the source's name)
  CC50: > 100 µM
IGROV1; Log10 Concentration −4.0 Molar
  Mean Optical Densities: 0.336
  Percent Growth: 13%
IGROV1; Log10 Concentration −5.0 Molar
  Mean Optical Densities: 0.500
  Percent Growth: 56%
IGROV1; Log10 Concentration −6.0 Molar
  Mean Optical Densities: 0.674
  Percent Growth: 102%
IGROV1; Log10 Concentration −7.0 Molar
  Mean Optical Densities: 0.674
  Percent Growth: 102%
IGROV1; Log10 Concentration −8.0 Molar
  Mean Optical Densities: 0.721
  Percent Growth: 114%
PC-3
  TGI: 1.77E−5 Molar
PC-3; Homo sapiens
  GI50: 2.37 µM
PC-3; [2]
  CC50: > 100 µM
PC-3; Log10 Concentration −4.0 Molar
  Mean Optical Densities: 0.152
  Percent Growth: −30%
PC-3; Log10 Concentration −5.0 Molar
  Mean Optical Densities: 0.268
  Percent Growth: 10%
PC-3; Log10 Concentration −6.0 Molar
  Mean Optical Densities: 0.588
  Percent Growth: 74%
PC-3; Log10 Concentration −7.0 Molar
  Mean Optical Densities: 0.668
  Percent Growth: 90%
PC-3; Log10 Concentration −8.0 Molar
  Mean Optical Densities: 0.665
  Percent Growth: 89%
NCI-H226
  TGI: 1.77E−5 Molar
NCI-H226; Homo sapiens
  GI50: 0.483 µM
  LC50 (concentration killing 50% of cells): > 100 µM
NCI-H226; Log10 Concentration −4.0 Molar
  Mean Optical Densities: 0.559
  Percent Growth: −16%
NCI-H226; Log10 Concentration −5.0 Molar
  Mean Optical Densities: 0.678
  Percent Growth: 5%
NCI-H226; Log10 Concentration −6.0 Molar
  Mean Optical Densities: 0.765
  Percent Growth: 36%
NCI-H226; Log10 Concentration −7.0 Molar
  Mean Optical Densities: 0.885
  Percent Growth: 79%
NCI-H226; Log10 Concentration −8.0 Molar
  Mean Optical Densities: 0.822
  Percent Growth: 57%
RPMI-8226
  TGI: 1.45E−5 Molar
RPMI-8226; Homo sapiens
  GI50: 0.337 µM
RPMI-8226; Log10 Concentration −4.0 Molar
  Mean Optical Densities: 0.213
  Percent Growth: −33%
RPMI-8226; Log10 Concentration −5.0 Molar
  Mean Optical Densities: 0.356
  Percent Growth: 6%
RPMI-8226; Log10 Concentration −6.0 Molar
  Mean Optical Densities: 0.532
  Percent Growth: 34%
RPMI-8226; Log10 Concentration −7.0 Molar
  Mean Optical Densities: 0.737
  Percent Growth: 67%
RPMI-8226; Log10 Concentration −8.0 Molar
  Mean Optical Densities: 0.766
  Percent Growth: 72%
[1]
  interference with the ELISA assay: neither compound interferes
Secreted VEGF protein; 12-well, p<0.01
  inhibition of VEGF protein levels relative to the hypoxia-induced positive control: significantly inhibit
Secreted VEGF protein; 96-well, 1 at 100 nM, 2 at 10 nM, PD98059 at 100 μM
  reduction of secreted VEGF protein induced by hypoxia: statistically significant reduction
Secreted VEGF protein; hypoxia
  relative potency in reducing the level of secreted VEGF protein: ten times more potent than 1
pGL3 Control; 1,10-phenanthroline experiment (FIG. 5)
  luciferase expression from the pGL3-Control plasmid: Neither compound exerts significant effect
pGL3 Control; hypoxia experiment (FIG. 3)
  luciferase expression from the control plasmid (pGL3 Control): No statistically significant difference
